ChEMBL document CHEMBL5214998, “Development of Macrocyclic PRMT5-Adaptor Protein Interaction Inhibitors” (J Med Chem, 2022)
pKd: −log10 of the molar value. Numbered stars: 1 amine (or outer) side, 2 acyl side, 3 side chain; on linkers, the order of the positions; unused ones are H or OH. Bridge positions count the residues as written; N and C are the ends. Square brackets hold non-standard residues; d marks the D form. Peptide text beside a SMILES is read from it. * marks the point of attachment. FITC = O=C1OC2(c3ccc(O)cc3Oc3cc(O)ccc32)c2ccc(NC(=S)*)cc21; Phe(4-NO2) = N[C@@H](Cc1ccc([N+](=O)[O-])cc1)C(=O)O; Phe(3,4-F2) = N[C@@H](Cc1ccc(F)c(F)c1)C(=O)O; Bip = N[C@@H](Cc1ccc(-c2ccccc2)cc1)C(=O)O; Phe(4-Br) = N[C@@H](Cc1ccc(Br)cc1)C(=O)O; Phe(4-Cl) = N[C@@H](Cc1ccc(Cl)cc1)C(=O)O; Hag = O=C([C@H](CCC=[*:3])N[*:1])[*:2]; Phe(3-F) = N[C@@H](Cc1cccc(F)c1)C(=O)O; Phe(4-F) = N[C@@H](Cc1ccc(F)cc1)C(=O)O; Phe(4-I) = N[C@@H](Cc1ccc(I)cc1)C(=O)O; Gla = N[C@@H](CC(C(=O)O)C(=O)O)C(=O)O; dAllylGly = C=CC[C@@H](N)C(=O)O; AllylGly = C=CC[C@H](N)C(=O)O

Each compound was assayed against PRMT5/MEP50 complex (Homo sapiens, UniProt O14744) (assay: (§1) Binding affinity to PRMT5/MEP50 (unknown origin) assessed as dissociation constant by FITC- Competitive binding assay).
Sequence of PRMT5/MEP50 complex (Homo sapiens, UniProt O14744) (O14744 whole entry): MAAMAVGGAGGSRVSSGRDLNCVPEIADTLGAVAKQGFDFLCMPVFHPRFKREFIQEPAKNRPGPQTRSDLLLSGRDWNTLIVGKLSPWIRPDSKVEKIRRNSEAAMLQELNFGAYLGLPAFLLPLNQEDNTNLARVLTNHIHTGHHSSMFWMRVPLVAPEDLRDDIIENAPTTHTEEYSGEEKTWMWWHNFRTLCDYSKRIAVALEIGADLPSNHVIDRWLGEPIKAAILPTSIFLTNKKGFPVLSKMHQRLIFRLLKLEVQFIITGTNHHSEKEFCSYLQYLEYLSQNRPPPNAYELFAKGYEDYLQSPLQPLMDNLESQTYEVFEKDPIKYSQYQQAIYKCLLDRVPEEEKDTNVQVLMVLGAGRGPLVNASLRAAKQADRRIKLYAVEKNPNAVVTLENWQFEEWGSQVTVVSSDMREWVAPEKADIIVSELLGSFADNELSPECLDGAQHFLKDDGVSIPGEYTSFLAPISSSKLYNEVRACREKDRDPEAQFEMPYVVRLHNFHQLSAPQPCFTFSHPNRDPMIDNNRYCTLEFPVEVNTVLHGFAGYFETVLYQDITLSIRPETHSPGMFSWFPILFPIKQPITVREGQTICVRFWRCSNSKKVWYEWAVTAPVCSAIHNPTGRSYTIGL
Sequence of PRMT5/MEP50 complex (Homo sapiens, UniProt O14744) (Q9BQA1 whole entry, further chain): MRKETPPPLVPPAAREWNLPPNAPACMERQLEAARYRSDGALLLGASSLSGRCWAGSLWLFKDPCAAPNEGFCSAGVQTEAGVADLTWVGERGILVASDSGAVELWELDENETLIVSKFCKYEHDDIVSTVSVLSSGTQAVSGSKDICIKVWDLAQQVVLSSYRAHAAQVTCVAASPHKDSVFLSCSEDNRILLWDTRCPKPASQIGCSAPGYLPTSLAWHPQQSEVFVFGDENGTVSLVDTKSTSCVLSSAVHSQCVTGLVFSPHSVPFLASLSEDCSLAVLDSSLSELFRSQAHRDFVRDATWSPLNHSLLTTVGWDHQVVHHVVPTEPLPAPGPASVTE
Type: protein-complex assay
Work on CC(=O)N[C@H](C(=O)N1CCC[C@H]1C(=O)NCC(=O)N[C@@H](CCC(N)=O)C(=O)N[C@@H](Cc1ccc(Br)cc1)C(=O)N[C@@H](CC(=O)O)C(=O)N[C@@H](CC(=O)O)C(=O)N[C@@H](C)C(=O)N[C@@H](CC(=O)O)C(=O)N[C@@H](CCCCNC(=S)Nc1ccc2c(c1)C(=O)OC21c2ccc(O)cc2Oc2cc(O)ccc21)C(N)=O)C(C)C (Ac-VPGQ[Phe(4-Br)]DDADK(FITC)-NH2) yielded a pKd of 6.50.
CC(=O)N[C@H](C(=O)N1CCC[C@H]1C(=O)NCC(=O)N[C@@H](CCC(N)=O)C(=O)N[C@@H](Cc1ccc([N+](=O)[O-])cc1)C(=O)N[C@@H](CC(=O)O)C(=O)N[C@@H](CC(=O)O)C(=O)N[C@@H](C)C(=O)N[C@@H](CC(=O)O)C(=O)N[C@@H](CCCCNC(=S)Nc1ccc2c(c1)C(=O)OC21c2ccc(O)cc2Oc2cc(O)ccc21)C(N)=O)C(C)C (Ac-VPGQ[Phe(4-NO2)]DDADK(FITC)-NH2) showed a pKd of 6.63.
Compound CC(C)[C@H](NC(=O)[C@H](CCCNC(=N)N)NC(=O)[C@H](CO)NC(=O)COCCOCCNC(=S)Nc1ccc2c(c1)C(=O)OC21c2ccc(O)cc2Oc2cc(O)ccc21)C(=O)N[C@H](C(=O)N1CCC[C@H]1C(=O)N[C@H]1CCCC[C@@H](C(=O)N[C@@H](CC(=O)O)C(=O)N[C@@H](C)C(=O)N[C@@H](CC(=O)O)C(N)=O)NC(=O)[C@H](Cc2ccccc2)NC(=O)[C@H](CCC(N)=O)NC1=O)C(C)C has a pKd of 5.89.
CC(=O)N[C@H](C(=O)N1CCC[C@H]1C(=O)N[C@H]1CC/C=C/C[C@@H](C(=O)N[C@@H](CC(=O)O)C(=O)N[C@@H](C)C(=O)N[C@@H](CC(=O)O)C(=O)N[C@@H](CCCCNC(=S)Nc2ccc3c(c2)C(=O)OC32c3ccc(O)cc3Oc3cc(O)ccc32)C(N)=O)NC(=O)[C@H](Cc2ccccc2)NC(=O)[C@H](CCC(N)=O)NC1=O)C(C)C (Ac-VP[Hag]QF[AllylGly]DADK(FITC)-NH2; staple (E) 3-6) gave a pKd of 6.25.
CC(=O)N[C@H](C(=O)N1CCC[C@H]1C(=O)NCC(=O)N[C@@H](CCC(N)=O)C(=O)N[C@@H](Cc1ccc(I)cc1)C(=O)N[C@@H](CC(=O)O)C(=O)N[C@@H](CC(=O)O)C(=O)N[C@@H](C)C(=O)N[C@@H](CC(=O)O)C(=O)N[C@@H](CCCCNC(=S)Nc1ccc2c(c1)C(=O)OC21c2ccc(O)cc2Oc2cc(O)ccc21)C(N)=O)C(C)C (Ac-VPGQ[Phe(4-I)]DDADK(FITC)-NH2) gave a pKd of 6.55.
CC(=O)N[C@H](C(=O)N1CCC[C@H]1C(=O)NCC(=O)N[C@@H](CCC(N)=O)C(=O)N[C@@H](Cc1ccc(-c2ccccc2)cc1)C(=O)N[C@@H](CC(=O)O)C(=O)N[C@@H](CC(=O)O)C(=O)N[C@@H](C)C(=O)N[C@@H](CC(=O)O)C(=O)N[C@@H](CCCCNC(=S)Nc1ccc2c(c1)C(=O)OC21c2ccc(O)cc2Oc2cc(O)ccc21)C(N)=O)C(C)C (Ac-VPGQ[Bip]DDADK(FITC)-NH2) was tested, and the pKd was 6.35.
CC(=O)N[C@H](C(=O)N1CCC[C@H]1C(=O)NCC(=O)N[C@@H](CCC(N)=O)C(=O)N[C@@H](Cc1ccc([N+](=O)[O-])cc1)C(=O)N[C@@H](CC(=O)O)C(=O)N[C@@H](CC(=O)O)C(=O)N[C@@H](C)C(=O)N[C@@H](CC(C(=O)O)C(=O)O)C(=O)N[C@@H](CCCCNC(=S)Nc1ccc2c(c1)C(=O)OC21c2ccc(O)cc2Oc2cc(O)ccc21)C(N)=O)C(C)C (Ac-VPGQ[Phe(4-NO2)]DDA[Gla]K(FITC)-NH2) showed a pKd of 7.11.
Work on CC(=O)N[C@H](C(=O)N1CCC[C@H]1C(=O)NCC(=O)N[C@@H](CCC(N)=O)C(=O)N[C@@H](Cc1cccc(F)c1)C(=O)N[C@@H](CC(=O)O)C(=O)N[C@@H](CC(=O)O)C(=O)N[C@@H](C)C(=O)N[C@@H](CC(=O)O)C(=O)N[C@@H](CCCCNC(=S)Nc1ccc2c(c1)C(=O)OC21c2ccc(O)cc2Oc2cc(O)ccc21)C(N)=O)C(C)C (Ac-VPGQ[Phe(3-F)]DDADK(FITC)-NH2) yielded a pKd of 6.18.
In the case of CC(=O)N[C@H](C(=O)N1CCC[C@H]1C(=O)NCC(=O)N[C@@H](CCC(N)=O)C(=O)N[C@@H](Cc1ccccc1)C(=O)N[C@@H](CC(=O)O)C(=O)N[C@@H](CC(=O)O)C(=O)N[C@@H](C)C(=O)N[C@@H](CC(C(=O)O)C(=O)O)C(=O)N[C@@H](CCCCNC(=S)Nc1ccc2c(c1)C(=O)OC21c2ccc(O)cc2Oc2cc(O)ccc21)C(N)=O)C(C)C (Ac-VPGQFDDA[Gla]K(FITC)-NH2), the pKd was 6.61.
CC(=O)N[C@H](C(=O)N1CCC[C@H]1C(=O)N[C@H]1CCCCCC[C@@H](C(=O)N[C@@H](CC(=O)O)C(=O)N[C@@H](C)C(=O)N[C@@H](CC(=O)O)C(=O)N[C@@H](CCCCNC(=S)Nc2ccc3c(c2)C(=O)OC32c3ccc(O)cc3Oc3cc(O)ccc32)C(N)=O)NC(=O)[C@H](Cc2ccccc2)NC(=O)[C@H](CCC(N)=O)NC1=O)C(C)C was tested, and the pKd was < 5.70.
For CC(=O)N[C@H](C(=O)N1CCC[C@H]1C(=O)NCC(=O)N[C@@H](CCC(N)=O)C(=O)N[C@@H](Cc1ccc(Cl)cc1)C(=O)N[C@@H](CC(=O)O)C(=O)N[C@@H](CC(=O)O)C(=O)N[C@@H](C)C(=O)N[C@@H](CC(C(=O)O)C(=O)O)C(=O)N[C@@H](CCCCNC(=S)Nc1ccc2c(c1)C(=O)OC21c2ccc(O)cc2Oc2cc(O)ccc21)C(N)=O)C(C)C (Ac-VPGQ[Phe(4-Cl)]DDA[Gla]K(FITC)-NH2), the pKd was 6.84.
CC(=O)N[C@H](C(=O)N1CCC[C@H]1C(=O)NCC(=O)N[C@@H](CCC(N)=O)C(=O)N[C@@H](Cc1ccc(Cl)cc1)C(=O)N[C@@H](CC(=O)O)C(=O)N[C@@H](CC(=O)O)C(=O)N[C@@H](C)C(=O)N[C@@H](CC(=O)O)C(=O)N[C@@H](CCCCNC(=S)Nc1ccc2c(c1)C(=O)OC21c2ccc(O)cc2Oc2cc(O)ccc21)C(N)=O)C(C)C (Ac-VPGQ[Phe(4-Cl)]DDADK(FITC)-NH2) was tested, and the pKd was 6.60.
CC(=O)N[C@H](C(=O)N1CCC[C@H]1C(=O)NCC(=O)N[C@@H](CCC(N)=O)C(=O)N[C@@H](Cc1ccc(F)c(F)c1)C(=O)N[C@@H](CC(=O)O)C(=O)N[C@@H](CC(=O)O)C(=O)N[C@@H](C)C(=O)N[C@@H](CC(=O)O)C(=O)N[C@@H](CCCCNC(=S)Nc1ccc2c(c1)C(=O)OC21c2ccc(O)cc2Oc2cc(O)ccc21)C(N)=O)C(C)C (Ac-VPGQ[Phe(3,4-F2)]DDADK(FITC)-NH2) gave a pKd of 6.39.
CC(=O)N[C@H](C(=O)N1CCC[C@H]1C(=O)NCC(=O)N[C@@H](CCC(N)=O)C(=O)N[C@@H](Cc1ccc(F)cc1)C(=O)N[C@@H](CC(=O)O)C(=O)N[C@@H](CC(=O)O)C(=O)N[C@@H](C)C(=O)N[C@@H](CC(=O)O)C(=O)N[C@@H](CCCCNC(=S)Nc1ccc2c(c1)C(=O)OC21c2ccc(O)cc2Oc2cc(O)ccc21)C(N)=O)C(C)C (Ac-VPGQ[Phe(4-F)]DDADK(FITC)-NH2) gave a pKd of 6.41.

These compounds were tested against PRMT5/MEP50 complex (Homo sapiens, UniProt O14744+Q9BQA1) (assay: as §1).
Sequence of PRMT5/MEP50 complex (Homo sapiens, UniProt O14744+Q9BQA1) (O14744 whole entry): as the sequence (O14744 whole entry) above
Sequence of PRMT5/MEP50 complex (Homo sapiens, UniProt O14744+Q9BQA1) (Q9BQA1 whole entry): as the sequence (Q9BQA1 whole entry, further chain) above
Type: protein-complex assay
In the case of CC(C)[C@H](NC(=O)[C@H](CCCNC(=N)N)NC(=O)[C@H](CO)NC(=O)COCCOCCNC(=S)Nc1ccc2c(c1)C(=O)OC21c2ccc(O)cc2Oc2cc(O)ccc21)C(=O)N[C@H](C(=O)N1CCC[C@H]1C(=O)N[C@H]1CNC(=O)C[C@H](C(=O)N[C@@H](CC(=O)O)C(=O)N[C@@H](C)C(=O)N[C@@H](CC(=O)O)C(N)=O)NC(=O)[C@H](Cc2ccccc2)NC(=O)[C@H](CCC(N)=O)NC1=O)C(C)C, the pKd was < 5.70.
For CC(=O)N[C@H](C(=O)N1CCC[C@H]1C(=O)N[C@H]1CC/C=C/C[C@H](C(=O)N[C@@H](CC(=O)O)C(=O)N[C@@H](C)C(=O)N[C@@H](CC(=O)O)C(=O)N[C@@H](CCCCNC(=S)Nc2ccc3c(c2)C(=O)OC32c3ccc(O)cc3Oc3cc(O)ccc32)C(N)=O)NC(=O)[C@H](Cc2ccccc2)NC(=O)[C@H](CCC(N)=O)NC1=O)C(C)C (Ac-VP[Hag]QF[dAllylGly]DADK(FITC)-NH2; staple (E) 3-6), the pKd was < 5.70.
For CC(C)[C@H](NC(=O)[C@H](CCCNC(=N)N)NC(=O)[C@H](CO)NC(=O)COCCOCCNC(=S)Nc1ccc2c(c1)C(=O)OC21c2ccc(O)cc2Oc2cc(O)ccc21)C(=O)N[C@H](C(=O)N1CCC[C@H]1C(=O)N[C@H]1CCNC(=O)C[C@H](C(=O)N[C@@H](CC(=O)O)C(=O)N[C@@H](C)C(=O)N[C@@H](CC(=O)O)C(N)=O)NC(=O)[C@H](Cc2ccccc2)NC(=O)[C@H](CCC(N)=O)NC1=O)C(C)C, the pKd was < 5.70.
For CC(=O)N[C@H](C(=O)N1CCC[C@@H]1C(=O)N[C@H]1CCCCC[C@@H](C(=O)N[C@@H](CC(=O)O)C(=O)N[C@@H](C)C(=O)N[C@@H](CC(C(=O)O)C(=O)O)C(=O)N[C@@H](CCCCNC(=S)Nc2ccc3c(c2)C(=O)OC32c3ccc(O)cc3Oc3cc(O)ccc32)C(N)=O)NC(=O)[C@H](Cc2ccc([N+](=O)[O-])cc2)NC(=O)[C@H](CCC(N)=O)NC1=O)C(C)C, the pKd was 7.05.
With CC(=O)N[C@H](C(=O)N1CCC[C@H]1C(=O)N[C@H]1CC/C=C/CC[C@H](C(=O)N[C@@H](CC(=O)O)C(=O)N[C@@H](C)C(=O)N[C@@H](CC(=O)O)C(=O)N[C@@H](CCCCNC(=S)Nc2ccc3c(c2)C(=O)OC32c3ccc(O)cc3Oc3cc(O)ccc32)C(N)=O)NC(=O)[C@H](Cc2ccccc2)NC(=O)[C@H](CCC(N)=O)NC1=O)C(C)C the pKd was < 5.70.
In the case of CC(C)[C@H](NC(=O)[C@H](CCCNC(=N)N)NC(=O)[C@H](CO)NC(=O)COCCOCCNC(=S)Nc1ccc2c(c1)C(=O)OC21c2ccc(O)cc2Oc2cc(O)ccc21)C(=O)N[C@H](C(=O)N1CCC[C@H]1C(=O)N[C@H]1C/C=C/C[C@H](C(=O)N[C@@H](CC(=O)O)C(=O)N[C@@H](C)C(=O)N[C@@H](CC(=O)O)C(N)=O)NC(=O)[C@H](Cc2ccccc2)NC(=O)[C@H](CCC(N)=O)NC1=O)C(C)C (stereo in doubt; form 1), the pKd was < 5.70.
For CC(=O)N[C@H](C(=O)N1CCC[C@H]1C(=O)N[C@H]1CCCCC[C@H](C(=O)N[C@@H](CC(=O)O)C(=O)N[C@@H](C)C(=O)N[C@@H](CC(=O)O)C(=O)N[C@@H](CCCCNC(=S)Nc2ccc3c(c2)C(=O)OC32c3ccc(O)cc3Oc3cc(O)ccc32)C(N)=O)NC(=O)[C@H](Cc2ccccc2)NC(=O)[C@H](CCC(N)=O)NC1=O)C(C)C, the pKd was < 5.70.
In the case of CC(C)[C@H](NC(=O)[C@H](CCCNC(=N)N)NC(=O)[C@H](CO)NC(=O)COCCOCCNC(=S)Nc1ccc2c(c1)C(=O)OC21c2ccc(O)cc2Oc2cc(O)ccc21)C(=O)N[C@H](C(=O)N1CCC[C@H]1C(=O)N[C@H]1C/C=C/C[C@H](C(=O)N[C@@H](CC(=O)O)C(=O)N[C@@H](C)C(=O)N[C@@H](CC(=O)O)C(N)=O)NC(=O)[C@H](Cc2ccccc2)NC(=O)[C@H](CCC(N)=O)NC1=O)C(C)C (stereo in doubt; form 2), the pKd was < 5.70.
For CC(=O)N[C@H](C(=O)N1CCC[C@H]1C(=O)N[C@H]1C/C=C\CC[C@H](C(=O)N[C@@H](CC(=O)O)C(=O)N[C@@H](C)C(=O)N[C@@H](CC(=O)O)C(=O)N[C@@H](CCCCNC(=S)Nc2ccc3c(c2)C(=O)OC32c3ccc(O)cc3Oc3cc(O)ccc32)C(N)=O)NC(=O)[C@H](Cc2ccccc2)NC(=O)[C@H](CCC(N)=O)NC1=O)C(C)C, the pKd was < 5.70.
